# Assay results taken from US11859235B2, “Sensor, detection method, reagent and kit” (priority 2020, dated 2024).
# System: acetylcholinesterase
# Assay: acetylcholine decomposition by acetylcholinesterase in a mixed system, monitored as pH change rate
# Format: biochemical
# Settings: addition of limonene to the mixed system of acetylcholine and acetylcholinesterase; FIG. 3
# Excerpt: The reaction of the above formula (1) is a chemical reaction in which acetylcholine acts as a substrate and acetylcholinesterase acts as an enzyme. In general, it is known that a chemical reaction using an enzyme is inhibited by a specific chemical substance for each enzyme, and the reaction rate is reduced or the reaction is stopped. The chemical substance is hereinafter referred to as an “inhibitor”. Here, in the mixed system of acetylcholinesterase and acetylcholine shown in FIG. 2A, when the inhibitor starts to be contained from time t, the cumulative amount of acetylcholine decomposition product after time t changes, that is, the slope of the graph decreases (see FIG. 2B). Therefore, by monitoring the decomposition rate of acetylcholine in the mixed system, it is possible to detect whether or not an inhibitor is present in the mixed system.
# The target substance to be detected by the sensor according to the present embodiment is an inhibitor against the acetylcholine decomposition reaction of acetylcholinesterase. Examples of this inhibitor include limonene. […] Examples of the inhibitor other than limonene against the acetylcholine decomposition reaction of acetylcholinesterase include terpenoids such as ambrein and pinene, flavonoids such as luteolin, alkaloids such as galantamine, and glycosides such as Cynatroside A.
structure (smiles),measurement,value
C=C(C)[C@H]1CC=C(C)CC1 [limonene],effect on the pH change rate of the mixed system of acetylcholine and acetylcholinesterase (inhibitory effect on the acetylcholine decomposition reaction),reduces the pH change rate of the mixed system
